The values that follow come from ChEMBL document CHEMBL2321833, “Design and optimization of selective protein kinase C θ (PKCθ) inhibitors for the treatment of autoimmune diseases” (J Med Chem, 2013).

What is called Cmax is the maximum level reached in the sampled fluid or tissue. Broadly, the Ki is a dissociation constant, usually derived from enzyme kinetics or from competition with a known ligand. The term IC50 denotes the point on the concentration scale where inhibition reaches its midpoint. As a reminder, the half-life is how long it takes for the measured level to halve.

Data set [1] in a line: Cmax in Balb/c mouse at 25 mg/kg, po. The class given is ADME, organism-based. On the set-up: dose 25 mg/kg, route oral. The conditions noted are these: in vivo.
The target in data set [2] is Protein kinase C delta type (Homo sapiens, UniProt Q05655). Nature of the data set: Inhibition of PKC delta (unknown origin) using ERMRPRKRQGSVRRRV as substrate after 15 mins by spectrophotometry in presence of ATP.
Data set [3] concerns the target T1, Protein kinase C theta type (Homo sapiens, UniProt Q04759). Nature of the data set: Inhibition of full-length recombinant PKC theta (unknown origin) using ERMRPRKRQGSVRRRV as substrate after 60 mins by scintillation counting analysis in presence of [gamma-33P]ATP.
Data set [4] addresses RAF proto-oncogene serine/threonine-protein kinase (Homo sapiens, UniProt P04049). Nature of the data set: Inhibition of c-Raf (unknown origin).
In data set [5] the target is T2, Tyrosine-protein kinase ITK/TSK (Homo sapiens, UniProt Q08881).
T2 sequence (Q08881 whole entry): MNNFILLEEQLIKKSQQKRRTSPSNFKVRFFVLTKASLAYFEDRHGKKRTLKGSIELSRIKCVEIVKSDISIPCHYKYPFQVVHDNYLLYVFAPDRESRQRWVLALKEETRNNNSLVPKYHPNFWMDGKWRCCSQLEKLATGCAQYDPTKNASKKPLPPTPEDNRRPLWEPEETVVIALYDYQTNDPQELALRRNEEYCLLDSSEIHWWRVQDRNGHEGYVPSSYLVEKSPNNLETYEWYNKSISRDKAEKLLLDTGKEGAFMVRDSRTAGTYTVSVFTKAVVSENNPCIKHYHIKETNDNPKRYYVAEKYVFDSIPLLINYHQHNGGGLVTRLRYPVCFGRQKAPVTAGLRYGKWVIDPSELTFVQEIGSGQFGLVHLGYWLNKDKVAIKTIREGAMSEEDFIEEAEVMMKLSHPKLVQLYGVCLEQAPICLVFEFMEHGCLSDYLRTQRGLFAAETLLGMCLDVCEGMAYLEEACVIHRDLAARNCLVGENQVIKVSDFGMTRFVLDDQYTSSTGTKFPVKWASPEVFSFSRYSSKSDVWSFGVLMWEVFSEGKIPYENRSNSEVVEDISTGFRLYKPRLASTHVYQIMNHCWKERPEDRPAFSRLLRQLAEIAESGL
Nature of the data set: Inhibition of Itk (unknown origin).

The target of data set [6] is Tyrosine-protein kinase Lck (Homo sapiens, UniProt P06239). Nature of the data set: Inhibition of Lck (unknown origin).
The target of data set [7] is Tyrosine-protein kinase Fyn (Homo sapiens, UniProt P06241). Nature of the data set: Inhibition of Fyn (unknown origin).
Sequence of Tyrosine-protein kinase Fyn (P06241 whole entry): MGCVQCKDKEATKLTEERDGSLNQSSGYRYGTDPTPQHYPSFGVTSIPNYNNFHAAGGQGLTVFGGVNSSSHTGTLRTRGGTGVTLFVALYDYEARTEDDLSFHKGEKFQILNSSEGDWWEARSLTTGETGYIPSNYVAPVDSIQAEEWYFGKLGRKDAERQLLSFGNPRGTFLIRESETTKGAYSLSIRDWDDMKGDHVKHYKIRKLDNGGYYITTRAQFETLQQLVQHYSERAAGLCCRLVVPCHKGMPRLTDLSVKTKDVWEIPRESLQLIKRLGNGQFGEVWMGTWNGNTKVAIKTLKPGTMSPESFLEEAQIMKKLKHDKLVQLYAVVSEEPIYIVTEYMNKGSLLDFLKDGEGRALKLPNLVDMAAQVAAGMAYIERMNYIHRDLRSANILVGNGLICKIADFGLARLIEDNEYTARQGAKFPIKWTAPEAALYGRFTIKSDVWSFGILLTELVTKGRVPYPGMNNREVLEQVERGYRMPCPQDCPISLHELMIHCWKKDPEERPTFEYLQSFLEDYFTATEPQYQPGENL
Data set [8] deals with T3, Tyrosine-protein kinase ZAP-70 (Homo sapiens, UniProt P43403).
T3 sequence (P43403 whole entry): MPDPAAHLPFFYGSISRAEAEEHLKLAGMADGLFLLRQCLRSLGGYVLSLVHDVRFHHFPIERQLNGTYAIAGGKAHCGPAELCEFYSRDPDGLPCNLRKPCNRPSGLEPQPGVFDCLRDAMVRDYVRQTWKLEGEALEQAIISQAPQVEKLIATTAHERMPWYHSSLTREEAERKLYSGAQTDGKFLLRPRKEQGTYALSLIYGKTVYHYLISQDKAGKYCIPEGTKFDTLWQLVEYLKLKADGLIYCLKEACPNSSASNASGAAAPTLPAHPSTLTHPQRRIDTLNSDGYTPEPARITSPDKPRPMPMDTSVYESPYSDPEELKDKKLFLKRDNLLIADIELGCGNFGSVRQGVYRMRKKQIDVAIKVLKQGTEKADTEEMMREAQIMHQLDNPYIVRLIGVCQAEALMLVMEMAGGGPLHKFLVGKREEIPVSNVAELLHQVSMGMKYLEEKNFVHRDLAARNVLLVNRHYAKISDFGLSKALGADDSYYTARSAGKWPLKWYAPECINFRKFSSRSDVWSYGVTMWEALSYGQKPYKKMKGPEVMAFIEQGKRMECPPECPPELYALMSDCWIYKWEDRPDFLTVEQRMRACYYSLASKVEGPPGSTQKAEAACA
Nature of the data set: Inhibition of Zap70 (unknown origin).

A short description of data set [9]: Clearance in rat at 3 mg/kg, iv and 10 mg/kg, po. As to conditions: in vivo. It counts as ADME, organism-based.
The target of data set [10] is Protein kinase C eta type (Homo sapiens, UniProt P24723). Nature of the data set: Inhibition of PKC eta (unknown origin).
Sequence of Protein kinase C eta type (P24723 whole entry): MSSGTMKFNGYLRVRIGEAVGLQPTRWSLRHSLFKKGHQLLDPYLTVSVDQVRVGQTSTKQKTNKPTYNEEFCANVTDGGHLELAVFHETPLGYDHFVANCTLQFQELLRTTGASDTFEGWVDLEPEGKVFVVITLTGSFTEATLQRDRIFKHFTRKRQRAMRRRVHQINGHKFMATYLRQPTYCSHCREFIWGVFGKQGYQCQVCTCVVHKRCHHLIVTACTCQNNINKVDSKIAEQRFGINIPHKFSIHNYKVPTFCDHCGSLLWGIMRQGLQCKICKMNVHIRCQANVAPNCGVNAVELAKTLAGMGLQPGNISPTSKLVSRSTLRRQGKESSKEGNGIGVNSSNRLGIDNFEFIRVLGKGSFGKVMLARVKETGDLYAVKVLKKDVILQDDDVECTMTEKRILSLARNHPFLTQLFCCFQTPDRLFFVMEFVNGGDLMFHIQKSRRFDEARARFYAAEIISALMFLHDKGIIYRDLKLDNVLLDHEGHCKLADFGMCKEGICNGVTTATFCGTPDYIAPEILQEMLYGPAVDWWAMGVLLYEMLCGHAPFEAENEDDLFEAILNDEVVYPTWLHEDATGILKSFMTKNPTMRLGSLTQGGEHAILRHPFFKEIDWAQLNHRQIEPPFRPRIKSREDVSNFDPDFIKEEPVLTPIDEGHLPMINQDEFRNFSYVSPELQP
Data set [11] has as its target T1, Protein kinase C theta type. Nature of the data set: Inhibition of PKC-theta in human PBMC cells assessed as inhibition of IL-2 after 24 hrs by bead-based FLISA assay. It counts as cell-based.
The nature of data set [12]: Half life in rat at 3 mg/kg, iv and 10 mg/kg, po. The class given is ADME, organism-based. The conditions noted are these: in vivo.
The target of data set [13] is T4, Protein kinase C zeta type (Homo sapiens, UniProt Q05513).
T4 sequence (Q05513 whole entry): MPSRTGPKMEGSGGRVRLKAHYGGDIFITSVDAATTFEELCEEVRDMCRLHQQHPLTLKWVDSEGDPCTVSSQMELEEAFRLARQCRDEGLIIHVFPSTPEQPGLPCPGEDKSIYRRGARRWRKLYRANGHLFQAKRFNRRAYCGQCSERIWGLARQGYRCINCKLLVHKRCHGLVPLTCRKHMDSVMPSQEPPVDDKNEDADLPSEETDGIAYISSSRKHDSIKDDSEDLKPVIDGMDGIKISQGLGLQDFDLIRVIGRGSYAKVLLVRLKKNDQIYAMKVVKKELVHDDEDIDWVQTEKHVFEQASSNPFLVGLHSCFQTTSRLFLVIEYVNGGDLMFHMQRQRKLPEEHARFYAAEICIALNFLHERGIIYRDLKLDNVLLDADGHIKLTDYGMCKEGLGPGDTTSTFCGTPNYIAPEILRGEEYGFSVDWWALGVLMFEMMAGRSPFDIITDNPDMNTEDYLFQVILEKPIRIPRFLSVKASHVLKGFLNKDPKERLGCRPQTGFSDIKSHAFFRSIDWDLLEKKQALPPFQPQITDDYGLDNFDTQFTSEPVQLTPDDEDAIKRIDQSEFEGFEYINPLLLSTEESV
Nature of the data set: Inhibition of PKC zeta (unknown origin).

Data set [14] concerns the target Protein kinase C gamma type (Homo sapiens, UniProt P05129). Nature of the data set: Inhibition of PKC gamma (unknown origin).
In data set [15] the target is Protein kinase C alpha type (Homo sapiens, UniProt P17252). Nature of the data set: Inhibition of PKC alpha (unknown origin) using RRRRRKGSFKRKA as substrate after 15 mins by spectrophotometry in presence of ATP.
In data set [16] the target is Protein kinase C beta type (Homo sapiens, UniProt P05771). Nature of the data set: Inhibition of PKC beta2 (unknown origin).
Sequence of Protein kinase C beta type (P05771 whole entry): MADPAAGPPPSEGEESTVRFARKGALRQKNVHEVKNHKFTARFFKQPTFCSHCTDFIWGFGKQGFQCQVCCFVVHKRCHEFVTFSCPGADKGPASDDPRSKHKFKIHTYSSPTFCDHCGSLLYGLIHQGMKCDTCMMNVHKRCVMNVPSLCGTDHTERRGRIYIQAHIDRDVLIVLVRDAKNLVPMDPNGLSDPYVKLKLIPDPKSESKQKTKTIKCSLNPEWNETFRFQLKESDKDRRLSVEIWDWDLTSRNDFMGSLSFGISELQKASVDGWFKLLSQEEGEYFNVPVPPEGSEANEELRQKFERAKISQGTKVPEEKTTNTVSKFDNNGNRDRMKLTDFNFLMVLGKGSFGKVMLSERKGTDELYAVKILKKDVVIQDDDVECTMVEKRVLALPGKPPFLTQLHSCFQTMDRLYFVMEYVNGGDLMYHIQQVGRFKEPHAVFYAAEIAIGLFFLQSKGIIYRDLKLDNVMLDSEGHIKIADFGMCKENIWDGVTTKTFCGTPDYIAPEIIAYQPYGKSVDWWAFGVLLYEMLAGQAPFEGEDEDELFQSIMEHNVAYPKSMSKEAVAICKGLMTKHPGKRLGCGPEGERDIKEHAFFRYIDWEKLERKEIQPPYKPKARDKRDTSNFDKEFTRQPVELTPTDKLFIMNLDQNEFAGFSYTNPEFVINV
Data set [17] deals with Mitogen-activated protein kinase 3 (Homo sapiens, UniProt P27361). Nature of the data set: Inhibition of Erk-1 (unknown origin).
Sequence of Mitogen-activated protein kinase 3 (P27361 whole entry): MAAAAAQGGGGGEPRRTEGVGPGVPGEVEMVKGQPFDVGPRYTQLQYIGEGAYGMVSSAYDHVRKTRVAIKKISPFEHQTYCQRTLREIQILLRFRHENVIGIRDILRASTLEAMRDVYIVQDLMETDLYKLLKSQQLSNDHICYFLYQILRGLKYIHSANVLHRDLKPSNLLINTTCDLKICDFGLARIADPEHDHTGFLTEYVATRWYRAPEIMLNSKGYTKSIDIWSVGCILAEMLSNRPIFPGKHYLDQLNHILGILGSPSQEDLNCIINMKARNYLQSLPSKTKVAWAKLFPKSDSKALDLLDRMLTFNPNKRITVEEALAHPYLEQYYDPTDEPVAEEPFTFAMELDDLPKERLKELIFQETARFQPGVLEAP
For a further data set, the system named is Blood. Nature of the data set: Inhibition of PKC theta in human whole blood assessed as IL-2 level after 1 hr by ELISA. It counts as functional, tissue-based. In general terms: ELISA stands for enzyme-linked immunosorbent assay.

T1 sequence (Q04759 whole entry): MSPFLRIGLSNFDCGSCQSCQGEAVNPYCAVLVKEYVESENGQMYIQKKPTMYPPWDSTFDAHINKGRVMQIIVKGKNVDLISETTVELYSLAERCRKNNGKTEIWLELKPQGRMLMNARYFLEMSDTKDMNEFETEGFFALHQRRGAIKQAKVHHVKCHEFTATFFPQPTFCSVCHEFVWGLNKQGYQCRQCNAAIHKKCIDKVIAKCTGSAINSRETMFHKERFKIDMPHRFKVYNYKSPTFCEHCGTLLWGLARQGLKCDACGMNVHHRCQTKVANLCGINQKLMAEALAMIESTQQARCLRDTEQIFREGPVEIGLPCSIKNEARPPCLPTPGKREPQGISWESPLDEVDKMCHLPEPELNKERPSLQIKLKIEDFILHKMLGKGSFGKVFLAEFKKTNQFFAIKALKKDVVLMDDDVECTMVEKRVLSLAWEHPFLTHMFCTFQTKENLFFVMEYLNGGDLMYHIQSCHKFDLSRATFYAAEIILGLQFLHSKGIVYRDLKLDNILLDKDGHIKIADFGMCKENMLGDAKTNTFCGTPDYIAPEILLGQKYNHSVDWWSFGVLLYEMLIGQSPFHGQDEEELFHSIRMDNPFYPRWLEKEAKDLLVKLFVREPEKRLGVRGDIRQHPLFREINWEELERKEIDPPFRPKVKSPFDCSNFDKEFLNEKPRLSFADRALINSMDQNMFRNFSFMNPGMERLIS
Sequence of RAF proto-oncogene serine/threonine-protein kinase (P04049 whole entry): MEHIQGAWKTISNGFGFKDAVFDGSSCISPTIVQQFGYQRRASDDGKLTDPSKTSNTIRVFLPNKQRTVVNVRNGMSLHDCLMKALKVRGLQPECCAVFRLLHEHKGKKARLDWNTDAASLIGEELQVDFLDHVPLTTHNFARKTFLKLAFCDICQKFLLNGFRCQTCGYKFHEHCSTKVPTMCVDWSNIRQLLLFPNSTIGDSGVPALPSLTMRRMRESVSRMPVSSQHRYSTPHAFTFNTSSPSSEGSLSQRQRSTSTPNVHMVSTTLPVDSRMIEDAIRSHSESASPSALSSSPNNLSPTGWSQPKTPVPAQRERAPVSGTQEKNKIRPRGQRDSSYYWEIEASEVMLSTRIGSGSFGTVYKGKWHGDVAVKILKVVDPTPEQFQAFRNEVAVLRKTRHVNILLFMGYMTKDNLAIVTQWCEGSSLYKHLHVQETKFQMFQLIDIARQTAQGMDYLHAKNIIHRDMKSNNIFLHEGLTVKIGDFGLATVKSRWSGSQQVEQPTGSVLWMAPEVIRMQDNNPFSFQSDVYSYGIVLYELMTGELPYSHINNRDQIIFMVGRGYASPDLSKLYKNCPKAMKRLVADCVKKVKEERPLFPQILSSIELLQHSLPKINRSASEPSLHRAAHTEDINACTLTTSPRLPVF

`CC(C)[C@@](C)(O)[C@@H]1CN(c2nc(-c3n[nH]c4ncccc34)c(F)cc2Cl)CCN1` came in with a Cmax in [1] of 700 ng/mL. Also, the Ki in data set [2] is 16 nM; in data set [3] it was 0.08 nM; in [4] it was over 1000 nM; in data set [5] it was over 1000 nM; in data set [6], over 1000 nM; in [7], over 1000 nM. The Ki in [8] was over 1000 nM; in data set [10] it was 3.5 nM; in data set [13], over 5000 nM; in data set [14] it was 725 nM; in data set [15], 356 nM; in data set [16], 393 nM. The compound further had a Ki in data set [17] of over 1000 nM. For the same compound, the clearance in [9] is 7 mL/min/kg. The IC50 in [11] came to 11 nM; in the data set on Blood it was 70 nM. In data set [12], this compound had a half-life of 4.7 h.
